Measured values published in patent US9670226B2, “Sesquiterpenoids” (National Institute of Biological Sciences, Beijing, priority 2014, dated 2017).

Tests used:
[1] = target: T1, IKKβ (Homo sapiens, UniProt O14920); test: IKKβ kinase inhibition; type: biochemical; details: read-out: IC50 against IKKβ
T1 sequence (O14920 1-756): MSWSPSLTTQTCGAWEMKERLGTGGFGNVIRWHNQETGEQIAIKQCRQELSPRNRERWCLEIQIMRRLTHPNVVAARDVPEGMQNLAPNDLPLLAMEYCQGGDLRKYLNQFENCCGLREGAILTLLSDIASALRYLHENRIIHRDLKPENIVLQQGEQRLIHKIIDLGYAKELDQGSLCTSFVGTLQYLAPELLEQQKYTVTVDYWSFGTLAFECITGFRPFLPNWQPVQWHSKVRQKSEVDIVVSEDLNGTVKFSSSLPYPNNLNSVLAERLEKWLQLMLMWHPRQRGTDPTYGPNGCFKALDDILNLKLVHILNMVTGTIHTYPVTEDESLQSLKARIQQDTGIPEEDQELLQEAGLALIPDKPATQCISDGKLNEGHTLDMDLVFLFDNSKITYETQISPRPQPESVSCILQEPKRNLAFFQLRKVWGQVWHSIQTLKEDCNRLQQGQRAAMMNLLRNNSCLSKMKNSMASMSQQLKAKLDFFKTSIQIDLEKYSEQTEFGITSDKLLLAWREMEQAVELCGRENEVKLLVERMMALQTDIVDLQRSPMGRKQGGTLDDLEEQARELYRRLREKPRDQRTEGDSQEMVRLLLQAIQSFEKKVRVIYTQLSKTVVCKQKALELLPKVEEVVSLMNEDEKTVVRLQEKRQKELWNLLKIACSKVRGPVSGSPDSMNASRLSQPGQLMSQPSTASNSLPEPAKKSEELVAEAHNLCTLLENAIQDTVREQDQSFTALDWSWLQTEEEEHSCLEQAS
Excerpt: To further explore how (+)-ainsliadimer A inactivates IKKα/β, we conducted the molecular dynamics (MD) simulations using the first crystal structure of IKKβ^29 to sample the conformational states of IKKβ upon 223 binding. […] We next asked whether 223 could directly affect IKKβ kinase activity.

[2] = test system: LPS-triggered inflammatory response (serum TNF-α, IL-6, IL-1β); test: LPS induced inflammatory cytokines in vivo; details: mice pre-injected with compound, then LPS
Excerpt: (+)-Ainsliadimer A (223) is a structurally unique and complex sesquiterpene lactone dimer with an unprecedented carbon skeleton, which was originally isolated from Ainsliaea macrocephala used in traditional Chinese medicine for the treatment of various diseases, including angina and rheumatoid arthritis^22. Aiming for the systematical chemical genetic studies using bioactive natural products, we have successfully accomplished the first enantioselective total syntheses of 223 as well as other related dimeric and trimeric sesquiterpenoids^23-25, which provided us ample material to extensively investigate their biological activities and potential therapy application. […] As an endotoxin, LPS is known to cause a systemic inflammatory response and acute tissue injury when injected into mice. Thus, we attempt to examine the effect of 223 on LPS-triggered inflammatory response in vivo. Mice were pre-injected with or without vehicle or 223, and then followed by administration of PBS or LPS.

[3] = test system: glioblastoma T98G cells; test: Cancer cell survival; type: cell-based, human; details: different concentration
[4] = target: C46A-IKKβ (Homo sapiens, UniProt O14920, C46A); test: In vitro kinase assay with Flag-IκBα substrate
C46A-IKKβ, sequence (O14920 whole entry C46A): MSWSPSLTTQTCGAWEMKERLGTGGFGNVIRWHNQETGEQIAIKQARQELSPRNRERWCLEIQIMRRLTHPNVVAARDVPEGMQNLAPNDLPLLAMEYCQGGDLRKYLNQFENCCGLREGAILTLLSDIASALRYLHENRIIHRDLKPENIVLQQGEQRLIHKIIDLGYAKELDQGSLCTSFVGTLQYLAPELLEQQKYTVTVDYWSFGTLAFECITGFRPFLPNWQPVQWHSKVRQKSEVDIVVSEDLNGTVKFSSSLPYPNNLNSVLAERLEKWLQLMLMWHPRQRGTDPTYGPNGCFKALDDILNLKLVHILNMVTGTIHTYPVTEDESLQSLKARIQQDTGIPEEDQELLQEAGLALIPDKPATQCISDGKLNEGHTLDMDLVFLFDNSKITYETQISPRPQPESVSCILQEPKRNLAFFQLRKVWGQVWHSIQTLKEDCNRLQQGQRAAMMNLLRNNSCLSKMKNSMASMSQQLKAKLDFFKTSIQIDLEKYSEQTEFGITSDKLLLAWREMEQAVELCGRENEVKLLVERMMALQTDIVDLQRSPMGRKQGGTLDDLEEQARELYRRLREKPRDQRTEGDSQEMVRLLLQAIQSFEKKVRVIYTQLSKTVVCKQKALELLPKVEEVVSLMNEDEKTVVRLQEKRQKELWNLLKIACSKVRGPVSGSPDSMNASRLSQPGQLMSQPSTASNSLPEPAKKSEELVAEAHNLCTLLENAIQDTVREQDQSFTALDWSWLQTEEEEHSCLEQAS

[5] = test system: cancer cells; test: Cell death in cancer cells (cell line not given); type: cell-based; details: addition of DTT
[6] = target: IKKγ/NEMO (Homo sapiens, UniProt Q9Y6K9); test: Association with other NF-κB pathway proteins; type: binding
IKKγ/NEMO, sequence (Q9Y6K9 whole entry): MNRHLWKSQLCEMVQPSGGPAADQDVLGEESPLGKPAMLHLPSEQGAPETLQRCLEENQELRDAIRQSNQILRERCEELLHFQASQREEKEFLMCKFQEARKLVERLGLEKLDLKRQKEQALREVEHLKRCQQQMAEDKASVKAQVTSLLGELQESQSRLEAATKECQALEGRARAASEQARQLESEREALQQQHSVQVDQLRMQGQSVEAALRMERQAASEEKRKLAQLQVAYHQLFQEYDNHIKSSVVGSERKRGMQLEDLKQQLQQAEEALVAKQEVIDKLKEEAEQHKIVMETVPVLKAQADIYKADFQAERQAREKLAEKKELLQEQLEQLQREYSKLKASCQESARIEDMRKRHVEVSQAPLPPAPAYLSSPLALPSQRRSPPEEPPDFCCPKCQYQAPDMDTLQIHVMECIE

[7] = target: WT-IKKβ (Homo sapiens, UniProt O14920); test: In vitro kinase assay with Flag-IκBα substrate
[8] = test system: IKKβ, other eight cysteine-to-alanine mutants; test: Binding to IKKβ cysteine mutants
Excerpt: In order to evaluate which of them is critical for the binding of 223, we individually mutated these nine cysteine residues of IKKβ into alanines.

[9] = target: T2, IKKβ C46A (Homo sapiens, UniProt O14920, C46A); test: Binding to IKKβ cysteine mutants
T2 construct: Flag; made in house
T2 sequence (O14920 whole entry C46A): as the sequence (O14920 whole entry C46A) above

[10] = test system: Phosphorylation of IKKα/β; test: TRAF6-induced IKKα/β phosphorylation in S100 cell lysates from 293T cells; type: biochemical; details: S100 cell lysates from 293T cells with recombinant TRAF6
Experimental: TNF receptor-associated factors (TRAFs) are important intermediates in NF-κB signaling pathway. For example, TRAF2 and TRAF5 regulate TNF-α receptor triggered IKK activation, whereas TRAF6 is required for IL-1 induced IKK activation^2. The latter pathway can be reconstituted in cell-free extracts by adding recombinant TRAF6 protein. Phosphorylation of IKKα/β was detected in S100 cell lysates from 293T cells when incubated with recombinant TRAF6.

[11] = target: TAK1 (Homo sapiens, UniProt O43318); test: Association with other NF-κB pathway proteins; type: binding
TAK1, sequence (O43318 whole entry): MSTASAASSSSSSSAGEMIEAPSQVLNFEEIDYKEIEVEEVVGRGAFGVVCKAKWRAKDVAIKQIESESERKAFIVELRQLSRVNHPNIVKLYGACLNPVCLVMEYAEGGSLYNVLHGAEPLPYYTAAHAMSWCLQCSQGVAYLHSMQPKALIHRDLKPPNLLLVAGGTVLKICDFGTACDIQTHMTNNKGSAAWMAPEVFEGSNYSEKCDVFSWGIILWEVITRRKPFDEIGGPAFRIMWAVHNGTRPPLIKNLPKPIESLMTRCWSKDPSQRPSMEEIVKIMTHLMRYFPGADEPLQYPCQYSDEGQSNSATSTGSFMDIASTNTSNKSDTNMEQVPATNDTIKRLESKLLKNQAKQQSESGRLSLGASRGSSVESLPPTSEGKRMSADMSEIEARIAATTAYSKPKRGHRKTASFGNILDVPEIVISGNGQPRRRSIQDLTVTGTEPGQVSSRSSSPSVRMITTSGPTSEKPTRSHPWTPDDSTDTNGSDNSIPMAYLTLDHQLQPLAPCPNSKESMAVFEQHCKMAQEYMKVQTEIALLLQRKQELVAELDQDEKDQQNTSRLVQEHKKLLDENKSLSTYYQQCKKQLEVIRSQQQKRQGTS

[12] = test system: IFR3 phosphorylation; test: LPS-induced type I interferon (IFN) responses; type: cell-based
[13] = test system: cervical cancer HeLa cells; test: Cancer cell survival; type: cell-based, human
[14] = test system: phosphorylation of IκBα; test: TNF induced IκBα phosphorylation in different cell lines; type: cell-based
[15] = target: T3, recombinant Flag-IKKβ (Homo sapiens, UniProt O14920); test: Binding to purified recombinant protein (SDS-PAGE, streptavidin blot); details: excess unlabeled compound
T3 construct: made in house; host or cells: 293T cells (transient transfection, anti-Flag purification)
Experimental: To determine whether 223 directly binds to IKKα and IKKβ, we generated recombinant IKKα and IKKβ proteins for further analysis. 293T cells were transfected with Flag-IKKα or Flag-IKKβ plasmid, and the recombinant Flag-IKKα or Flag-IKKβ was captured by anti-Flag agarose beads and was then eluted off the beads using Flag peptide. The purified Flag-IKKα or Flag-IKKβ was incubated with DMSO or increasing concentrations of Probe, and then the mixtures were resolved by SDS-PAGE, followed by immunoblotting with streptavidin or anti-Flag antibody.

[16] = test system: BGC-823 human gastric adenocarcinoma xenograft; test: BGC-823 xenograft in nude mice; type: in vivo; details: 223 25 mg/kg, qdx8
Experimental: Next we further examined anti-tumor effect of 223 in vivo. Nude mice bearing a BGC-823 human gastric adenocarcinoma xenograft were treated with vehicle or 223 (25 mg/kg, qdx8) or 10-hydroxycamptothecin (HCPT), a widely used anti-tumor drug (30 mg/kg, q6dx2).

[17] = target: T4, IKKα Cys46 into serine (Homo sapiens, UniProt O15111, C46S); test: Binding to Cys46-to-serine mutant
T4 construct: Flag; made in house
T4 sequence (O15111 whole entry C46S): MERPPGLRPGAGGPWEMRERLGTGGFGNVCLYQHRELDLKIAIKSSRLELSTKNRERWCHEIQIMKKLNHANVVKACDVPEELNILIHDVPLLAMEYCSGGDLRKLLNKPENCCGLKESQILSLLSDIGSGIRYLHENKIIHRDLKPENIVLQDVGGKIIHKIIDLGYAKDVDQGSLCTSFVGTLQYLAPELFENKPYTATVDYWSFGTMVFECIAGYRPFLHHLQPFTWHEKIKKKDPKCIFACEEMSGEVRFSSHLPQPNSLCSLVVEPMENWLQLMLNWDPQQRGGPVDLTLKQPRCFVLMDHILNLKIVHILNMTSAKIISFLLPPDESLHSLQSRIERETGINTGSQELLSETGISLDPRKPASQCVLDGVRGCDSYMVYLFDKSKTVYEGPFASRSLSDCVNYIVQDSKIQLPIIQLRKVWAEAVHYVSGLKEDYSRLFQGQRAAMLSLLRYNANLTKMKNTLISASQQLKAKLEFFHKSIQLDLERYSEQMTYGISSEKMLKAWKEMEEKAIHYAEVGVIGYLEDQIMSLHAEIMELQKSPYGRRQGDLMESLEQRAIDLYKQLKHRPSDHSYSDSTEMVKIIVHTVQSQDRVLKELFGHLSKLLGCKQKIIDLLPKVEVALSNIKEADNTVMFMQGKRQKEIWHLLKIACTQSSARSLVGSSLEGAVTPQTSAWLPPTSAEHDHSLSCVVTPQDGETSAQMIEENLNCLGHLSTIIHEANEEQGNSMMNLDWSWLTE

C=C1C(=O)O[C@@H]2[C@@H]3[C@@H](C[C@@]4(O)[C@]3(O)CC[C@]43C(=O)C[C@H]4C(=C)CC[C@H]5C(=C)C(=O)O[C@@H]5[C@H]43)C(=C)CC[C@@H]12 [Compound 223, (+)-Ainsliadimer A]
IC50 [1]: 76 nM | up-regulation of serum IL-1β [2]: greatly attenuated | up-regulation of serum IL-6 [2]: greatly attenuated | up-regulation of serum TNF-α [2]: greatly attenuated | cell death [3]: Dramatic cell death | phosphorylation of IκBα triggered by C46A-IKKβ [4]: resistant | compound-triggered inhibition of cell survival [5]: completely abolished | association with IKKγ/NEMO [6]: no association | WT-IKKβ-induced phosphorylation of IκBα [7]: significantly suppressed | binding of other eight IKKβ cysteine mutants [8]: retained high affinity binding | interaction of IKKβ C46A mutant with compound [9]: completely lost the ability to interaction | TRAF6-induced phosphorylation of IKKα/β [10]: completely abolished | association with TAK1 [11]: no association | effect on LPS-induced type I interferon (IFN) responses (IFR3 phosphorylation) [12]: no effect | inhibition of cell survival (cell viability by ATP levels) ([13]; 48 hours): dose response inhibition | cell death ([13]; different concentration): Dramatic cell death | TNF induced phosphorylation of IκBα [14]: significantly inhibited | competition of Probe binding to recombinant IKKβ [15]: competed off | anti-tumor effect relative to HCPT (30 mg/kg, q6dx2) [16]: comparable | side effects and body weight during administration ([16]; HCPT 30 mg/kg, q6dx2): did not display any discernible side effects or significant changes in body weight | mice with significant tumor remission ([16]; after 12 days): eight of eight | xenograft tumor response ([16]; after 12 days, compared to vehicle): Significant xenograft tumor remission | interaction with IKKα Cys46 to serine mutant [17]: abolished
